# From US6992079B2, “Substituted 11-phenyl-dibenzazepine compounds useful for the treatment or prevention of diseases characterized by abnormal cell proliferation” (President Fellows of Harvard College, priority 1997, dated 2006)
# Like-named read-outs stand apart in the source and are kept apart here.
# Legend:
# [1] = tested on: SK-MEL-2B; assay: In-Vitro Testing SRB panel: Melanoma; format: cell-based; settings: 48 h
# [2] = tested on: SK-MEL-5; assay: In-Vitro Testing SRB panel: Melanoma; format: cell-based; settings: SK-MEL-5, 48 h
# [3] = tested on: MOLT-4; assay: In-Vitro Testing SRB panel: Leukemia; format: cell-based; settings: MOLT-4, 48 h
# [4] = tested on: LOX IMVI; assay: In-Vitro Testing SRB panel: Melanoma; format: cell-based; settings: 48 h
# [5] = tested on: HCT-116; assay: In-Vitro Testing SRB panel: Colon Cancer; format: cell-based; settings: HCT-116, 48 h
# [6] = tested on: NIH 3T3 mouse fibroblast cells; assay: Mitogenic assay (mitogen-induced cell proliferation); format: cell-based
# [7] = tested on: OVCAR-5; assay: In-Vitro Testing SRB panel: Ovarian Cancer; format: cell-based; settings: OVCAR-5, 48 h
# [8] = tested on: SF-295; assay: In-Vitro Testing SRB panel: CNS Cancer; format: cell-based; settings: SF-295, 48 h
# [9] = tested on: SU.86.86 pancreatic adenocarcinoma; assay: Mouse xenograft tumor growth; format: in vivo, nude mice; settings: SU.86.86 pancreatic adenocarcinoma mouse xenograft
# [10] = tested on: SNB-75; assay: In-Vitro Testing SRB panel: CNS Cancer; format: cell-based; settings: SNB-75, 48 h
# [11] = tested on: SR; assay: In-Vitro Testing SRB panel: Leukemia; format: cell-based; settings: 48 h
# [12] = tested on: DU-145; assay: In-Vitro Testing SRB panel: Prostate Cancer; format: cell-based; settings: DU-145, 48 h
# [13] = tested on: NCI-H23; format: cell-based; settings: NCI-H23, 48 h
# [14] = tested on: RPMI-8226; assay: In-Vitro Testing SRB panel: Leukemia; format: cell-based; settings: RPMI-8226, 48 h
# [15] = tested on: MDA-N; assay: In-Vitro Testing SRB panel: Breast Cancer; format: cell-based; settings: 48 h
# [16] = tested on: HS 578T; assay: In-Vitro Testing SRB panel: Breast Cancer; format: cell-based; settings: 48 h
# [17] = tested on: squamous cell carcinoma (KLN-205) cells; assay: Tumor growth in murine squamous cell carcinoma model; format: in vivo, mouse
# [18] = tested on: KM12; assay: In-Vitro Testing SRB panel: Colon Cancer; format: cell-based; settings: KM12, 48 h
# [19] = tested on: UACC-62; assay: In-Vitro Testing SRB panel: Melanoma; format: cell-based; settings: UACC-62, 48 h
# [20] = Homo sapiens, read-out: LC50 (the source's name)
smiles,measurement,setting,value
"O=C(c1ccc([N+](=O)[O-])cc1)N1Cc2ccccc2C(c2ccccc2Cl)c2ccccc21 (stereo not drawn) [Compound 28, N-(4′-Nitrobenzoyl)-11-(2′-chlorophenyl)-5,6-dihydro-11H-dibenz[b,e]azepine]",GI50,[1]; Homo sapiens,> 100 µM
same,CC50,"[1]; Homo sapiens, SK-MEL-2B, read-out: LC50 (the source's name)",> 100 µM
same,TGI,[1]; SK-MEL-2B,>1.00E−04 Molar
same,Percent Growth,"[1]; SK-MEL-2B, log10 conc −4.0 Molar",50%
same,Percent Growth,"[1]; SK-MEL-2B, log10 conc −5.0 Molar",56%
same,Percent Growth,"[1]; SK-MEL-2B, log10 conc −6.0 Molar",72%
same,Percent Growth,"[1]; SK-MEL-2B, log10 conc −7.0 Molar",97%
same,Percent Growth,"[1]; SK-MEL-2B, log10 conc −8.0 Molar",39%
same,GI50,[2]; Homo sapiens,529 nM
same,CC50,[2]; [20],> 100 µM
same,TGI,[2],1.74E−05 Molar
same,Percent Growth,[2]; log10 conc −4.0 Molar,−25%
same,Percent Growth,[2]; log10 conc −5.0 Molar,8%
same,Percent Growth,[2]; log10 conc −6.0 Molar,40%
same,Percent Growth,[2]; log10 conc −7.0 Molar,76%
same,Percent Growth,[2]; log10 conc −8.0 Molar,84%
same,GI50,[3]; Homo sapiens,700 nM
same,CC50,[3]; [20],> 100 µM
same,TGI,[3],>1.00E−04 Molar
same,Percent Growth,[3]; log10 conc −4.0 Molar,24%
same,Percent Growth,[3]; log10 conc −5.0 Molar,24%
same,Percent Growth,[3]; log10 conc −6.0 Molar,44%
same,Percent Growth,[3]; log10 conc −7.0 Molar,82%
same,Percent Growth,[3]; log10 conc −8.0 Molar,109%
same,TGI,[4],>1.00E−04 Molar
same,GI50,[4]; Homo sapiens,382 nM
same,CC50,[4]; [20],> 100 µM
same,Percent Growth,[4]; log10 conc −4.0 Molar,9%
same,Percent Growth,[4]; log10 conc −5.0 Molar,8%
same,Percent Growth,[4]; log10 conc −6.0 Molar,19%
same,Percent Growth,[4]; log10 conc −7.0 Molar,93%
same,Percent Growth,[4]; log10 conc −8.0 Molar,103%
same,TGI,[5],>1.00E−04 Molar
same,Percent Growth,[5]; log10 conc −4.0 Molar,11%
same,Percent Growth,[5]; log10 conc −5.0 Molar,19%
same,Percent Growth,[5]; log10 conc −6.0 Molar,27%
same,Percent Growth,[5]; log10 conc −7.0 Molar,93%
same,Percent Growth,[5]; log10 conc −8.0 Molar,103%
same,GI50,[5]; Homo sapiens,447 nM
same,CC50,[5]; [20],> 100 µM
same,IC50,[6]; NIH3T3,40 to 500 nM
same,inhibition at 10 µM,"[6]; NIH3T3, 10 μM compound",99%
same,GI50,[7]; Homo sapiens,> 100 µM
same,CC50,[7]; [20],> 100 µM
same,TGI,[7],>1.00E−04 Molar
same,Percent Growth,[7]; log10 conc −4.0 Molar,68%
same,Percent Growth,[7]; log10 conc −5.0 Molar,75%
same,Percent Growth,[7]; log10 conc −6.0 Molar,91%
same,Percent Growth,[7]; log10 conc −7.0 Molar,96%
same,Percent Growth,[7]; log10 conc −8.0 Molar,110%
same,GI50,[8]; Homo sapiens,442 nM
same,CC50,[8]; [20],> 100 µM
same,TGI,[8],>1.00E−04 Molar
same,Percent Growth,[8]; log10 conc −4.0 Molar,10%
same,Percent Growth,[8]; log10 conc −5.0 Molar,20%
same,Percent Growth,[8]; log10 conc −6.0 Molar,36%
same,Percent Growth,[8]; log10 conc −7.0 Molar,75%
same,Percent Growth,[8]; log10 conc −8.0 Molar,88%
same,tumor growth,[9],significantly inhibited tumor growth
same,GI50,[10]; Homo sapiens,5.25 µM
same,CC50,[10]; [20],> 100 µM
same,TGI,[10],>1.00E−04 Molar
same,Percent Growth,[10]; log10 conc −4.0 Molar,17%
same,Percent Growth,[10]; log10 conc −5.0 Molar,26%
same,Percent Growth,[10]; log10 conc −6.0 Molar,75%
same,Percent Growth,[10]; log10 conc −7.0 Molar,111%
same,Percent Growth,[10]; log10 conc −8.0 Molar,108%
same,TGI,[11],>1.00E−04 Molar
same,GI50,[11]; Homo sapiens,643 nM
same,CC50,[11]; [20],> 100 µM
same,Percent Growth,[11]; log10 conc −4.0 Molar,21%
same,Percent Growth,[11]; log10 conc −5.0 Molar,30%
same,Percent Growth,[11]; log10 conc −6.0 Molar,42%
same,Percent Growth,[11]; log10 conc −7.0 Molar,85%
same,Percent Growth,[11]; log10 conc −8.0 Molar,76%
same,TGI,[12],>1.00E−04 Molar
same,Percent Growth,[12]; log10 conc −4.0 Molar,27%
same,Percent Growth,[12]; log10 conc −5.0 Molar,30%
same,Percent Growth,[12]; log10 conc −6.0 Molar,54%
same,Percent Growth,[12]; log10 conc −7.0 Molar,98%
same,Percent Growth,[12]; log10 conc −8.0 Molar,100%
same,GI50,[12]; Homo sapiens,1520 nM
same,CC50,[12]; [20],> 100 µM
same,GI50,[13]; Homo sapiens,1610 nM
same,CC50,[13]; [20],> 100 µM
same,TGI,[13],>1.00E−04 Molar
same,Percent Growth,[13]; log10 conc −4.0 Molar,41%
same,Percent Growth,[13]; log10 conc −5.0 Molar,43%
same,Percent Growth,[13]; log10 conc −6.0 Molar,52%
same,Percent Growth,[13]; log10 conc −7.0 Molar,93%
same,Percent Growth,[13]; log10 conc −8.0 Molar,100%
same,GI50,[14]; Homo sapiens,522 nM
same,CC50,[14]; [20],> 100 µM
same,TGI,[14],>1.00E−04 Molar
same,Percent Growth,[14]; log10 conc −4.0 Molar,12%
same,Percent Growth,[14]; log10 conc −5.0 Molar,36%
same,Percent Growth,[14]; log10 conc −6.0 Molar,46%
same,Percent Growth,[14]; log10 conc −7.0 Molar,61%
same,Percent Growth,[14]; log10 conc −8.0 Molar,74%
same,TGI,[15],>1.00E−04 Molar
same,GI50,[15]; Homo sapiens,1170 nM
same,CC50,[15]; [20],> 100 µM
same,Percent Growth,[15]; log10 conc −4.0 Molar,7%
same,Percent Growth,[15]; log10 conc −5.0 Molar,23%
same,Percent Growth,[15]; log10 conc −6.0 Molar,52%
same,Percent Growth,[15]; log10 conc −7.0 Molar,94%
same,Percent Growth,[15]; log10 conc −8.0 Molar,99%
same,TGI,[16]; HS 578T,>1.00E−04 Molar
same,Percent Growth,"[16]; HS 578T, log10 conc −4.0 Molar",42%
same,Percent Growth,"[16]; HS 578T, log10 conc −5.0 Molar",121%
same,Percent Growth,"[16]; HS 578T, log10 conc −6.0 Molar",125%
same,Percent Growth,"[16]; HS 578T, log10 conc −7.0 Molar",187%
same,Percent Growth,"[16]; HS 578T, log10 conc −8.0 Molar",193%
same,GI50,"[16]; Homo sapiens, Hs-578T",80.2 µM
same,CC50,"[16]; Homo sapiens, HS 578T, read-out: LC50 (the source's name)",> 100 µM
same,cyclin D1 and PCNA expression in vivo,[17]; KLN induced tumors,abrogated cyclin D1 and PCNA expression
same,tumor growth,"[17]; KLN-205, subcutaneous injection or oral administration of 80 mg/kg/day for 30 days",significantly inhibited tumor growth
same,GI50,[18]; Homo sapiens,765 nM
same,CC50,[18]; [20],> 100 µM
same,TGI,[18],>1.00E−04 Molar
same,Percent Growth,[18]; log10 conc −4.0 Molar,15%
same,Percent Growth,[18]; log10 conc −5.0 Molar,26%
same,Percent Growth,[18]; log10 conc −6.0 Molar,45%
same,Percent Growth,[18]; log10 conc −7.0 Molar,84%
same,Percent Growth,[18]; log10 conc −8.0 Molar,94%
same,GI50,[19]; Homo sapiens,363 nM
same,CC50,[19]; [20],> 100 µM
same,Percent Growth,[19]; log10 conc −4.0 Molar,0%
same,Percent Growth,[19]; log10 conc −5.0 Molar,22%
same,Percent Growth,[19]; log10 conc −6.0 Molar,45%
same,Percent Growth,[19]; log10 conc −7.0 Molar,57%
same,Percent Growth,[19]; log10 conc −8.0 Molar,82%
